“And” between values parts separate entries of the source, which are not always exact repeats. Equal values may be shown once.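 Where inhibition never reached the appropriate level, the endpoint shown equals the highest concentration tested. Otherwise, values were interpolated linearly from a five-concentration, 48-hour dose response in 96-well plates. GI50: concentration for 50% inhibition of growth. TGI: concentration producing complete growth inhibition.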

We go through 22 molecules from PubChem BioAssay (NCI).

Among the test systems are MDA-N; DMS 114 small cell lung; HOP-18 NSCLC; KM20L2 colon; LXFL 529 NSCLC; M19-MEL melanoma; RXF-631 renal; SNB-78 CNS; XF 498 CNS.
Test in all cases: inhibition of tumour cell growth, NCI panel, 48 h

For `O=[N+]([O-])c1nccn1CC(O)CN1CCCCC1` (configuration not stated), the TGI with MDA-N was above 100 µM.
For `COC(=O)C(CCC(=O)CCl)N1C(=O)c2ccccc2C1=O` (configuration not stated), the TGI in the experiment with MDA-N stood at 23.9 µM.
With `C#CCNC(=O)NCCCCC(NC(=O)OCc1ccccc1)C(=O)OCc1ccccc1` (configuration not stated), the TGI in the experiment with DMS 114 small cell lung is above 73.5 µM; in the experiment on HOP-18 NSCLC, above 100 µM; in the experiment with KM20L2 colon, above 100 µM; in the experiment with LXFL 529 NSCLC, above 100 µM; with M19-MEL melanoma, above 100 µM; in the experiment with RXF-631 renal, above 100 µM. The TGI is above 100 µM in the experiment on SNB-78 CNS and 40.8 µM in the experiment with XF 498 CNS.
As for `O=c1cccccc1NCCCCCCCNc1cccccc1=O`, the TGI with KM20L2 colon was above 100 µM; in the experiment with LXFL 529 NSCLC, above 100 µM; in the experiment on M19-MEL melanoma, 84.8 µM; with RXF-631 renal it was 35 µM; in the experiment on SNB-78 CNS it was above 100 µM; in the experiment on XF 498 CNS, 32.8 µM.
As to `COC(=O)C1C(=O)CC2CCCCC21` (configuration not stated), the TGI in the experiment on DMS 114 small cell lung, in the experiment on KM20L2 colon, in the experiment with LXFL 529 NSCLC, with M19-MEL melanoma and in the experiment on SNB-78 CNS was above 100 µM in each case.
Regarding `CC1=C2C(=CC(C)(C)[C@@H]2O)C(=O)[C@](C)(O)C12CC2`, the TGI in the experiment with DMS 114 small cell lung was 0.101 µM; in the experiment on HOP-18 NSCLC it was 0.0865 µM; with KM20L2 colon, 0.0744 µM; in the experiment on LXFL 529 NSCLC, 0.0927 µM; with M19-MEL melanoma it was 0.163 µM; in the experiment on MDA-N, 0.0424 µM and 0.0278 µM. This molecule gave a TGI in the experiment with XF 498 CNS of 0.0326 µM. Further, in the experiment with MDA-N, the GI50 was 0.0126 µM.
On to `Cl/C(N=Nc1ccccc1)=N/Nc1ccccc1`, for which the TGI with HOP-18 NSCLC, in the experiment on KM20L2 colon, in the experiment on LXFL 529 NSCLC, in the experiment on M19-MEL melanoma, with RXF-631 renal and in the experiment on SNB-78 CNS was above 100 µM throughout. In the experiment on XF 498 CNS, this molecule displayed a TGI above 100 µM.
For `CCc1cccc(C)c1N1C(=O)C(=O)C(c2nc3ccccc3o2)C(=O)C1=O`, the TGI with HOP-18 NSCLC, in the experiment with KM20L2 colon, with LXFL 529 NSCLC, with M19-MEL melanoma, in the experiment with SNB-78 CNS and with XF 498 CNS was above 100 µM each time.
In the case of `[O-][N+]1(CC[N+]2([O-])CCCCC2)CCCCC1`, in the experiment with MDA-N, the TGI was above 100 µM.
In the case of `O=c1nc(-c2ccccc2)cc(CC(O)c2ccc(Cl)c(Cl)c2)[nH]1` (configuration not stated), the TGI in the experiment with DMS 114 small cell lung, in the experiment on HOP-18 NSCLC, in the experiment with KM20L2 colon, with LXFL 529 NSCLC and in the experiment on M19-MEL melanoma was above 100 µM each time.
In the case of `COc1ccc(OC(C(=O)O)C(C)C)c2c1CCCC2=O` (configuration not stated), the TGI in the experiment on DMS 114 small cell lung, in the experiment on HOP-18 NSCLC, in the experiment on KM20L2 colon, in the experiment with LXFL 529 NSCLC, in the experiment with M19-MEL melanoma and with RXF-631 renal was above 100 µM in each case. For the same molecule, the TGI with SNB-78 CNS and in the experiment with XF 498 CNS was above 100 µM throughout.
Take `O=c1cc(-c2ccc(O)cc2)oc2cc(O[C@@H]3O[C@H](CO)[C@@H](O)[C@H](O)[C@H]3O)cc(O)c12`: the TGI with MDA-N was above 100 µM.
In the case of `C#CCNC(=O)ON1C(=O)CCC1=O`, the TGI in the experiment on HOP-18 NSCLC, in the experiment with KM20L2 colon, in the experiment with LXFL 529 NSCLC, in the experiment with M19-MEL melanoma, in the experiment with RXF-631 renal and in the experiment with SNB-78 CNS was above 100 µM in each case.
The molecule `Cc1cc(Cl)ccc1OCC(=O)Nc1nc(N)nc(N)n1` yielded a TGI in the experiment with MDA-N above 100 µM.
In the case of `C[Si](C)(C)C(CCCCSc1ccccc1)(Sc1ccccc1)Sc1ccccc1`, the TGI with DMS 114 small cell lung, with LXFL 529 NSCLC, in the experiment with M19-MEL melanoma, with RXF-631 renal, in the experiment with SNB-78 CNS and in the experiment on XF 498 CNS was above 100 µM each time.
As to `CC[C@@]1(OC(=O)CN)C(=O)OCc2c1cc1n(c2=O)Cc2c-1nc1cc3c(cc1c2CCl)OCO3`, in the experiment on MDA-N, the GI50 is 0.0885 µM and the TGI came to 0.645 µM.
On to `Cc1ccc(S(=O)(=O)N=NC=C2c3ccccc3N(O)c3ccccc32)cc1`, for which the TGI in the experiment with DMS 114 small cell lung worked out at 10.8 µM; in the experiment with HOP-18 NSCLC, 20.8 µM; in the experiment on KM20L2 colon, 12.4 µM; in the experiment on LXFL 529 NSCLC it was 2.41 µM; with M19-MEL melanoma, 23.4 µM; with RXF-631 renal, 10.2 µM. The same molecule showed a TGI with SNB-78 CNS of 32.8 µM.
Take `CCOC(=O)CN(Cn1cncn1)Cn1cncn1`: the TGI with HOP-18 NSCLC was above 100 µM; in the experiment on KM20L2 colon, 51.7 µM; in the experiment with LXFL 529 NSCLC, above 100 µM; in the experiment on M19-MEL melanoma it was above 100 µM; in the experiment on SNB-78 CNS, above 100 µM; with XF 498 CNS, 40.9 µM.
Take `O=C(C#Cc1ccccc1)N1c2ccccc2CC1c1c[nH]c2ccccc12` (configuration not stated): the TGI in the experiment with DMS 114 small cell lung was 28.8 µM; in the experiment on KM20L2 colon, 67.5 µM; in the experiment with LXFL 529 NSCLC it was 27.7 µM; with M19-MEL melanoma it was 43.1 µM; in the experiment with RXF-631 renal it was 27.7 µM; in the experiment with SNB-78 CNS, 36.9 µM.
As to `N/C(=N\NS(=O)(=O)c1ccccc1)Oc1ccc(Br)cc1Br`, the TGI with DMS 114 small cell lung, in the experiment on HOP-18 NSCLC, in the experiment on KM20L2 colon, in the experiment on LXFL 529 NSCLC, with M19-MEL melanoma and in the experiment with RXF-631 renal was above 100 µM throughout. For the same molecule, the TGI in the experiment with SNB-78 CNS and in the experiment on XF 498 CNS was above 100 µM each time.
As to `CCc1ccccc1NC(=O)/C=C/c1ccccc1`, the TGI in the experiment with MDA-N is above 100 µM.
For `CC1(c2cc3c(cc2Br)OCO3)SCCCS1`, the TGI with DMS 114 small cell lung, in the experiment on KM20L2 colon, in the experiment on LXFL 529 NSCLC, in the experiment with M19-MEL melanoma, in the experiment on RXF-631 renal and with SNB-78 CNS was above 100 µM each time. Further, the TGI in the experiment with XF 498 CNS was 82.3 µM.
